PubChem BioAssay (NCI)
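Cultured in 96-well plates, cells were exposed to test compound for 48 hours across five concentrations. GI50 = concentration required for 50% inhibition of growth. TGI denotes the concentration required for complete inhibition of growth.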

Columns and labels:
Test in all cases: NCI anticancer screen, dose series, 48 h
[1] = tested on: SNB-75 CNS
[2] = tested on: OVCAR-8 ovarian
[3] = tested on: OVCAR-4 ovarian
[4] = tested on: MCF7 breast
[5] = tested on: IGROV1 ovarian
[6] = tested on: LOX IMVI melanoma
[7] = tested on: MDA-MB-468 breast
[8] = tested on: OVCAR-5 ovarian
[9] = tested on: MDA-MB-231 breast
[10] = tested on: RXF 393 renal
[11] = tested on: SF-539 CNS
[12] = tested on: SF-268 CNS
[13] = tested on: UACC-257 melanoma
[14] = tested on: HOP-92 NSCLC
[15] = tested on: HT29 colon
[16] = tested on: UO-31 renal
[17] = tested on: A549 NSCLC
[18] = tested on: A498 renal
[19] = tested on: CCRF-CEM leukemia
[20] = tested on: T-47D breast
[21] = tested on: MALME-3M melanoma
[22] = tested on: SK-MEL-5 melanoma
[23] = tested on: NCI-H460 lung
[24] = tested on: HOP-62 NSCLC
[25] = tested on: HCT-116 colon
[26] = tested on: SR leukemia
[27] = tested on: COLO 205 colon
[28] = tested on: K-562 leukemia
[29] = tested on: MOLT-4 leukemia
[30] = tested on: U251 CNS
[31] = tested on: ACHN renal
[32] = tested on: CAKI-1 renal
[33] = tested on: HCC-2998 colon
[34] = tested on: OVCAR-3 ovarian
[35] = tested on: SK-MEL-28 melanoma
[36] = tested on: EKVX NSCLC
[37] = tested on: MDA-MB-435
[38] = tested on: KM12 colon
[39] = tested on: HS 578T breast
[40] = tested on: PC-3 prostate
[41] = tested on: NCI-H23 lung
[42] = tested on: TK-10 renal
[43] = tested on: RPMI-8226 leukemia
[44] = tested on: NCI-H226 lung
[45] = tested on: 786-0 renal
[46] = tested on: HCT-15 colon
[47] = tested on: BT-549 breast
[48] = tested on: SW-620 colon
[49] = tested on: DU-145 prostate
[50] = tested on: SN12C renal
[51] = tested on: M14 melanoma
[52] = tested on: SK-OV-3 ovarian
[53] = tested on: NCI/ADR-RES ovarian
[54] = tested on: SK-MEL-2 melanoma
[55] = tested on: HL-60(TB) leukemia
[56] = tested on: NCI-H522 lung
[57] = tested on: UACC-62 melanoma
[58] = tested on: SF-295 CNS
[59] = tested on: SNB-19 CNS

For O=C1Nc2cc(-c3ccc(NS(=O)(=O)c4ccc([N+](=O)[O-])cc4)cc3)ccc2/C1=C/c1ccc[nH]1, the GI50 [1] was 20.4 µM, the TGI [1] was over 100 µM and the GI50 [2] was 15.8 µM. For the same molecule, the TGI [2] was 36.2 µM, the GI50 [3] was 10.9 µM and the TGI [3] was 92.6 µM. For the same molecule, the GI50 [4] was 1740 nM, the TGI [4] was 14.1 µM and the GI50 [5] was 19.4 µM. For the same molecule, the TGI [5] was over 100 µM, the GI50 [6] was 13.7 µM and the TGI [6] was 27.2 µM. For the same molecule, the GI50 [7] was 778 nM, the TGI [7] was 7.33 µM and the GI50 [8] was 18.1 µM. For the same molecule, the TGI [8] was 50.2 µM, the GI50 [9] was 16.8 µM and the TGI [9] was 38.6 µM. The GI50 [10] was 13.3 µM, the TGI [10] was 31.6 µM and the GI50 [11] was 10.9 µM. It also gave a TGI [11] of 23.8 µM, a GI50 [12] of 16.4 µM and a TGI [12] of 80.4 µM. The GI50 [13] was 11.1 µM, the TGI [13] was 44.3 µM and the GI50 [14] was 14.2 µM. For the same molecule, the TGI [14] was 39.6 µM, the GI50 [15] was 14.8 µM and the TGI [15] was 34 µM. For the same molecule, the GI50 [16] was 6.74 µM, the TGI [16] was over 100 µM and the GI50 [17] was 12.1 µM. It also gave a TGI [17] of 28.9 µM, a GI50 [18] of 18.4 µM and a TGI [18] of 50.1 µM. The GI50 [19] was 13.6 µM, the TGI [19] was over 100 µM and the GI50 [20] was 4.77 µM. The TGI [20] was over 100 µM, the GI50 [21] was 15.7 µM and the TGI [21] was 37.4 µM. It also gave a GI50 [22] of 19.9 µM, a TGI [22] of 72.7 µM and a GI50 [23] of 9.97 µM. It also gave a TGI [23] of 32.2 µM, a GI50 [24] of 18 µM and a TGI [24] of 44.1 µM. For the same molecule, the GI50 [25] was 13.2 µM, the TGI [25] was 29 µM and the GI50 [26] was 10.3 µM. For the same molecule, the TGI [26] was over 100 µM, the GI50 [27] was 16 µM and the TGI [27] was 47.9 µM. The GI50 [28] was 11.5 µM, the TGI [28] was over 100 µM and the GI50 [29] was 8.77 µM. It also gave a TGI [29] of over 100 µM, a GI50 [30] of 13.6 µM and a TGI [30] of 27.3 µM. It also gave a GI50 [31] of 12.1 µM, a TGI [31] of 26.9 µM and a GI50 [32] of 14.1 µM. It also gave a TGI [32] of 36.6 µM, a GI50 [33] of 18.6 µM and a TGI [33] of over 100 µM. The GI50 [34] was 13.9 µM, the TGI [34] was 32.4 µM and the GI50 [35] was 12.3 µM. It also gave a TGI [35] of 28 µM, a GI50 [36] of 2280 nM and a TGI [36] of 32.7 µM. The GI50 [37] was 16.1 µM, the TGI [37] was 42.8 µM and the GI50 [38] was 14.3 µM. The TGI [38] was 65.6 µM, the GI50 [39] was 22.5 µM and the TGI [39] was over 100 µM. For the same molecule, the GI50 [40] was 11.6 µM, the TGI [40] was 65.2 µM and the GI50 [41] was 6.59 µM. It also gave a TGI [41] of 26.8 µM, a GI50 [42] of 16.4 µM and a TGI [42] of 51.3 µM. For the same molecule, the GI50 [43] was 6.15 µM, the TGI [43] was 73.6 µM and the GI50 [44] was 12.2 µM. For the same molecule, the TGI [44] was 30.1 µM, the GI50 [45] was 14.4 µM and the TGI [45] was 31.1 µM. The GI50 [46] was 11 µM, the TGI [46] was 33.8 µM and the GI50 [47] was 10.5 µM. For the same molecule, the TGI [47] was 34.8 µM, the GI50 [48] was 21 µM and the TGI [48] was 51.2 µM. The GI50 [49] was 16 µM, the TGI [49] was 33.6 µM and the GI50 [50] was 14.6 µM. The TGI [50] was 34.8 µM, the GI50 [51] was 13.8 µM and the TGI [51] was 43.1 µM. For the same molecule, the GI50 [52] was 18.2 µM, the TGI [52] was 49.8 µM and the GI50 [53] was 14.8 µM. For the same molecule, the TGI [53] was 50.9 µM, the TGI [54] was 71.4 µM and the GI50 [55] was 27.6 µM. For the same molecule, the TGI [55] was over 100 µM, the GI50 [56] was 6.54 µM and the TGI [56] was 28 µM. It also gave a GI50 [57] of 10.3 µM, a TGI [57] of 29.7 µM and a GI50 [58] of 11.4 µM. It also gave a TGI [58] of 41.3 µM, a GI50 [59] of 16.3 µM and a TGI [59] of 56.6 µM.
